Consider two compounds from US9505774B2, “Polymorphic forms of icotinib maleate and uses thereof” (BETTA PHARMACEUTICALS CO., LTD., priority 2013, dated 2016).

SMILES strings stand for the structures. Structures can show the parent of a compound that is named as a salt.

This series can be described thus: Pharmacokinetic study of Icotinib hydrochloride and Polymorph Form II of Icotinib maleate, oral suspension, plasma by HPLC. Conditions: Sprague-Dawley (SD), rat, fasted male SD rats, oral suspension in sodium carboxymethyl cellulose, dose equivalent to 35 mg/kg Icotinib; for AUC(0-t): read-out: AUC(0-24). The series is classed as in vivo. An excerpt: Drugs and reagents: the Icotinib hydrochloride used in this study was of Crystalline Form I disclosed by the WO2010/003313. Polymorph Form II of Icotinib maleate and Icotinib hydrochloride were ground to fine particles. The material content (purity) was not less than 99.0%. Sodium carboxymethyl cellulose was medical supply graded.
Experimental animals: SD rats were divided to an Icotinib hydrochloride group and a Polymorph Form II group, with both groups consisting of males.
Pharmaceutical preparation: the amount of each compound was weighed and then sodium carboxymethyl cellulose was added to result in the test compound's concentration of 0.5%. The solid mixture was then added to prepare a suspension thereof at a final concentration of […] in water.
Administration and sample collection: each suspension was administered orally to fasted SD rats at a dose equivalent to 35 mg/kg Icotinib in a dose volume of 5 ml/kg. 0.4 ml of blood was collected in EDTA-K pre anticoagulant tubes at time intervals of 0.5, 1, 1.5, 2, 4, 6, 8 and 24 hrs after the administration of the test compound, centrifuged at 3000 rpm for 10 minutes, and 120 μl plasma was collected and kept in cold storage.
Samples were analyzed by high performance liquid chromatography. The chromatographic conditions utilized C18-silane bonded silica as stationary phase, 0.02 mol/L of sodium dihydrogen phosphate in acetonitrile (40:60, using sodium hydroxide solution to adjust pH to 5.0) as the mobile phase and a detection wavelength of 334 nm. PK profile comparison of Polymorph Form II of Icotinib maleate and Crystalline Form I of Icotinib hydrochloride was summarized in Table 1 and FIG. 3.

As to `C#Cc1cccc(Nc2ncnc3cc4c(cc23)OCCOCCOCCO4)c1` [Icotinib hydrochloride], the AUC(0-inf) stood at 19100 ng·h/mL, the Cmax stood at 3360 ng/mL, the Tmax was 2.33 h and the half-life is 2.94 h. Besides, the AUC(0-t) came to 19000 ng·h/mL.
The like results for `C#Cc1cccc(Nc2ncnc3cc4c(cc23)OCCOCCOCCO4)c1.O=C(O)/C=C\C(=O)O` [Form II, Icotinib maleate] were, in that order, 65400 ng·h/mL, 7530 ng/mL, 5.33 h, 3.06 h and 64800 ng·h/mL.
